Source: patent US20110319379A1, “Substituted Indazole Amides And Their Use As Glucokinase Activators” (priority 2009, published 2011)
pEC50: −log10 of the molar value.

biological target: T1, recombinant human glucokinase (beta cell isoform) (Homo sapiens, UniProt P35557); test: Assay 1: Evaluating Activator Potency and Maximum Activation at 5 mM Glucose; type: biochemical; settings: Assay 1; 5 mM glucose; NADH depletion at 340 nm, PK/LDH coupled; read-out: Glucokinase EC50
T1 construct: Full-length glucokinase (beta cell isoform) was His-tagged at the N-terminus; His tag (N); made in house; host or cells: E. coli BL21(DE3), vector pBCGK
T1 sequence (P35557 1-465): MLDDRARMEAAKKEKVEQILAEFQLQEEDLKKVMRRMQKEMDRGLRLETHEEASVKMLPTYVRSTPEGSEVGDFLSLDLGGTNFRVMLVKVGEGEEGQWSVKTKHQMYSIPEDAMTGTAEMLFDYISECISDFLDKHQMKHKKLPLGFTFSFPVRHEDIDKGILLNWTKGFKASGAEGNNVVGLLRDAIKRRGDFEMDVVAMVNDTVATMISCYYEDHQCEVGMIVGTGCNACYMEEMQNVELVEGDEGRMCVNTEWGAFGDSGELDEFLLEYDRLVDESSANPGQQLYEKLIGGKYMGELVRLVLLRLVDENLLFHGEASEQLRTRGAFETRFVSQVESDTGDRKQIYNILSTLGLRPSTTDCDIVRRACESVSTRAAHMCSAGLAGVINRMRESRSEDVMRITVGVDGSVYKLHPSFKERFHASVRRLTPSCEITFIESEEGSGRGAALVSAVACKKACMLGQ
Experimental: Representative compounds of this invention were evaluated in biochemical assays (Assay 1 or Assay 2) to characterize their glucokinase activation properties.
The recombinant human glucokinase protein utilized in both assays was prepared and purified as described below.
BL21(DE3) cells (Invitrogen Corporation, Carlsbad, Calif.) containing pBCGK (C or N H is) vector were grown at 37° C. (in 2XYT) until the OD600 was between 0.6-1.0. Expression was induced by addition of isopropylthiogalactoside to a final concentration of 0.1-0.2 mM to the cells which were then incubated overnight at 23° C. The next day, cells were harvested via centrifugation at 5000 rpm for 15 minutes at 4° C. The cell pellet was stored at −80° C. for future purification.
Beta Cell Glucokinase His-Taq Purification Conditions: A Ni-NTA (Quigan, Germantown, Md.) column (15-50 mL) was used for separation. Two buffers were prepared, 1) a lysis/nickel equilibration and wash buffer and 2) a nickel elution buffer. The lysis/equilibration/wash buffer was prepared as such: 25 mM HEPES buffer at pH 7.5, 250 mM NaCl, 20 mM imidazole, and 14 mM β-mercaptoethanol as final concentrations. The elution buffer was prepared as such: 25 mM HEPES at pH 7.5, 250 mM NaCl, 400 mM imidazole, and 14 mM β-mercaptoethanol as final concentrations. The buffers were each filtered with a 0.22 μm filter prior to use. The cell pellet (1 L culture) was resuspended in 300 mL of the lysis/equilibration buffer. The cells were then lysed (3 times) with a Microfluidics Model 110Y microfluidizer (Microfluidics Corporation, Newton, Mass.). The slurry was centrifuged with a Beckman Coulter Model LE-80K ultracentrifuge (Beckman Coulter, Fullerton, Calif.) at 40,000 rpm for 45 minutes at 4° C. The supernatant was transferred to a chilled flask. A volume of 20 μl was saved for gel analysis. A Pharmacia AKTA (GMI, Inc., Ramsey, Minn.) purification system was used for separation. The prime lines were purged with lysis/equilibration buffer. The Ni-NTA column was equilibrated with 200 mL of the lysis/equilibration buffer at a flow rate of 5 mL/minute. The supernantant was loaded over the column at 4 mL/minute and the flow-through was collected in a flask. The unbound proteins were washed with lysis/equilibration buffer at a flow rate of 5 mL/minute until the ultraviolet reaches baseline. The protein was then eluted from the column with the imidazole elution buffer via imidazole gradient 20 mM to 400 mM over 320 mL. The column was then stripped of any additional protein with 80 mL of the elution buffer. The elution fractions were each 8 mL, for a total yield of 50 samples. Fractions were analyzed by sodium dodecyl sulfate polyacrylamide (SDS-PAGE) and the fractions containing protein of interest were pooled and concentrated to 10 mL using ultrafiltration cell with a 10,000 molecular weight cut-off (MWCO) Millipore membrane (Sigma-Aldrich, St. Louis, Mo.) under nitrogen gas (60 psi). Protein was further purified by size exclusion chromatography (SEC) using a […] (320 mL) (Amersham Pharmacia, Uppsala, Sweden). SEC was equilibrated with 450 mL sizing buffer containing 25 mM HEPES pH 7.0, 50 mM NaCl, and 5 mM dithiothreitol. Concentrated protein was then loaded over SEC and elution with 400 mL sizing buffer was performed overnight at 0.5 mL/minute. The elution fractions were 5 mL each. The fractions were analyzed by SDS-PAGE and protein containing fractions were pooled. Concentration was measured using Bradford Assay/BSA Standard. Purified protein was stored in small aliquots at −80° C.
Assay 1: Evaluating Activator Potency and Maximum Activation at 5 mM Glucose
Full-length glucokinase (beta cell isoform) was His-tagged at the N-terminus and purified by a Ni column followed by size exclusion chromatography as described above. Glucose was obtained from Calbiochem (San Diego, Calif.) and other reagents were purchased from Sigma-Aldrich (St. Louis, Mo.).

Row | Compound | pEC50
1 | Cn1ccc(NC(=O)c2cc(Oc3cnc(C(F)(F)F)cn3)c3cn(C)nc3c2)n1 [Example 1J, 2-methyl-N-(1-methyl-1H-pyrazol-3-yl)-4-{[5-(trifluoromethyl)pyrazin-2-yl]oxy}-2H-indazole-6-carboxamide] | 4.65
2 | Cn1cc2c(Oc3cnc(C(F)(F)F)cn3)cc(C(=O)Nc3cnn(C)n3)cc2n1 [Example 1K, 2-methyl-N-(2-methyl-2H-1,2,3-triazol-4-yl)-4-{[5-(trifluoromethyl)pyrazin-2-yl]oxy}-2H-indazole-6-carboxamide] | 4.79
3 | Cn1ccc(NC(=O)c2cc(Oc3ccc(S(C)(=O)=O)cc3)c3cn(C)nc3c2)n1 [Example 1N, 2-methyl-N-(1-methyl-1H-pyrazol-3-yl)-4-[4-(methylsulfonyl)phenoxy]-2H-indazole-6-carboxamide] | 5.07
4 | CCn1cc2c(Oc3cnc(C(=O)N(C)C)cn3)cc(C(=O)Nc3ccc(C)cn3)cc2n1 [Example 1O, 4-{[5-(dimethylcarbamoyl)pyrazin-2-yl]oxy}-2-ethyl-N-(5-methylpyridin-2-yl)-2H-indazole-6-carboxamide] | 6.11
5 | CCn1cc2c(Oc3cnc(C(=O)N(C)C)cn3)cc(C(=O)Nc3cnc(C)cn3)cc2n1 [Example 1P, 4-{[5-(dimethylcarbamoyl)pyrazin-2-yl]oxy}-2-ethyl-N-(5-methylpyrazin-2-yl)-2H-indazole-6-carboxamide] | 5.56
6 | CCn1cc2c(Oc3ccc(S(C)(=O)=O)cc3)cc(C(=O)Nc3ccccn3)cc2n1 [Example 1Q, 2-ethyl-4-[4-(methylsulfonyl)phenoxy]-N-pyridin-2-yl-2H-indazole-6-carboxamide] | 5.62
7 | CCn1cc2c(Oc3ccc(S(C)(=O)=O)cc3)cc(C(=O)Nc3ccc(C)cn3)cc2n1 [Example 1R, 2-ethyl-N-(5-methylpyridin-2-yl)-4-[4-(methylsulfonyl)phenoxy]-2H-indazole-6-carboxamide] | 5.85
8 | CCS(=O)(=O)c1ccc(Oc2cc(C(=O)Nc3ccccn3)cc3nn(C)cc23)cc1 [Example 1S, 4-[4-(ethylsulfonyl)phenoxy]-2-methyl-N-pyridin-2-yl-2H-indazole-6-carboxamide] | 5.87
9 | CCn1cc2c(Oc3ccc(S(=O)(=O)C4CC4)cc3)cc(C(=O)Nc3ccccn3)cc2n1 [Example 1X, 4-[4-(cyclopropylsulfonyl)phenoxy]-2-ethyl-N-pyridin-2-yl-2H-indazole-6-carboxamide] | 6.06
10 | Cc1ccc(NC(=O)c2cc(Oc3cnc(C(=O)N(C)C)nc3)c3cn(C)nc3c2)nc1 [Example 1Z, 4-{[2-(dimethylcarbamoyl)pyrimidin-5-yl]oxy}-2-methyl-N-(5-methylpyridin-2-yl)-2H-indazole-6-carboxamide] | 5.97

Now from value to compound:

Row | pEC50 | Compound
11 | 5.11 | Cc1cnc(NC(=O)c2cc(Oc3ccc(S(C)(=O)=O)cc3)c3cn(C)nc3c2)cn1 [Example 1L, 2-methyl-N-(5-methylpyrazin-2-yl)-4-[4-(methylsulfonyl)phenoxy]-2H-indazole-6-carboxamide]
12 | 5.58 | Cc1ccc(NC(=O)c2cc(Oc3ccc(S(C)(=O)=O)cc3)c3cn(C)nc3c2)nc1 [Example 1M, 2-methyl-N-(5-methylpyridin-2-yl)-4-[4-(methylsulfonyl)phenoxy]-2H-indazole-6-carboxamide]
13 | 5.71 | CCS(=O)(=O)c1ccc(Oc2cc(C(=O)Nc3cnc(C)cn3)cc3nn(C)cc23)cc1 [Example 1T, 4-[4-(ethylsulfonyl)phenoxy]-2-methyl-N-(5-methylpyrazin-2-yl)-2H-indazole-6-carboxamide]
14 | 5.72 | Cc1cnc(NC(=O)c2cc(Oc3ccc(S(=O)(=O)C4CC4)cc3)c3cn(C)nc3c2)cn1 [Example 1U, 4-[4-(cyclopropylsulfonyl)phenoxy]-2-methyl-N-(5-methylpyrazin-2-yl)-2H-indazole-6-carboxamide]
15 | 5.82 | Cn1cc2c(Oc3ccc(S(=O)(=O)C4CC4)cc3)cc(C(=O)Nc3ccccn3)cc2n1 [Example 1V, 4-[4-(cyclopropylsulfonyl)phenoxy]-2-methyl-N-pyridin-2-yl-2H-indazole-6-carboxamide]
16 | 5.83 | CCn1cc2c(Oc3ccc(S(=O)(=O)C4CC4)cc3)cc(C(=O)Nc3cnc(C)cn3)cc2n1 [Example 1W, 4-[4-(cyclopropylsulfonyl)phenoxy]-2-ethyl-N-(5-methylpyrazin-2-yl)-2H-indazole-6-carboxamide]

same assay, conditions: Assay 1; 5 mM glucose; read-out: Glucokinase EC50

Row | pEC50 | Compound
17 | 5.48 | Cc1cnc(NC(=O)c2cc(Oc3cnc(C(=O)N(C)C)nc3)c3cn(C)nc3c2)cn1 [Example 1Y, 4-{[2-(dimethylcarbamoyl)pyrimidin-5-yl]oxy}-2-methyl-N-(5-methylpyrazin-2-yl)-2H-indazole-6-carboxamide]
